One assay addresses T1, His6-TEV-PPARγ-(234-505) (Homo sapiens, UniProt P37231).
T1 construct: The His6-TEV-PPARγ-(234-505) protein for assay was expressed and purified; TEV cleavage site (N); made in house
T1 sequence (P37231 234-505): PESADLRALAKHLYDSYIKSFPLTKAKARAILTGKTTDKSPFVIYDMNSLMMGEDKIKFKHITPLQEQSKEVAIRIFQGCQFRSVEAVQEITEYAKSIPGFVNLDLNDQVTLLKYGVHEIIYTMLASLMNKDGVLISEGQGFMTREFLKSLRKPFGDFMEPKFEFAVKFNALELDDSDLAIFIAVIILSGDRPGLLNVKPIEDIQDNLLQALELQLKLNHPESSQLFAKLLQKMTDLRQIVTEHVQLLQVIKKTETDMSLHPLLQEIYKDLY
Briefly: TR-FRET Assay to Measure Co-R Peptide Recruitment to PPARγ. In kind it is biochemical. The note with it: Co-R peptide (SMRT-ID2) recruitment; top final concentration 20 μM; read-out: TR-FRET i-Ag; AC50. Summed up:
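Corepressor recruitment is measured by adding terbium-labeled anti-His antibody and FITC SMRT-ID2 peptide, at 5 and 200 nM final, after a 20-minute room-temperature protein–compound incubation. After one further hour, signal is converted to percent response between DMSO and 500 nM T0070907 wells.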

A further assay relates to UM-UC-9 engineered cells. Briefly: Cell proliferation / short-term viability assay, CellTiter-Glo 144 h. In kind it is cell-based, human. Particulars: read-out: CTGlo 144 h UMUC9.5, G150. Summed up: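 Viability read by CellTiter-Glo 2.0 luminescence at day 7 versus DMSO-vehicle wells and a T0 plate measured on day 0. Cells: UM-UC-9 engineered assay-ready stocks, 500 cells/well in high-glucose DMEM with 10% FBS, 37° C, 5% CO2.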
A general note: ATP-based viability assays read luminescence as a measure of living cells.

Read-outs that look alike come from different tables or passages of the source.

As for `COc1cc(-c2cc(C(=O)N3CCC(C(=O)NC4CCN(CCF)C(C)(C)C4)CC34CC4)n[nH]2)c(F)cn1` (mixture of isomers) [Example 425, (S)-4-(5-(5-fluoro-2-methoxypyridin-4-yl)-1H-pyrazole-3-carbonyl)-N—((S)-1-(2-fluoroethyl)-2,2-dimethylpiperidin-4-yl)-4-azaspiro[2.5]octane-7-carboxamide and (S)-4-(5-(5-fluoro-2-methoxypyridin-4-yl)-1H-pyrazole-3-carbonyl)-N—((R)-1-(2-fluoroethyl)-2,2-dimethylpiperidin-4-yl)-4-azaspiro[2.5]octane-7-carboxamide], the AC50 at His6-TEV-PPARγ-(234-505) is 901 nM. Besides, the IC50 with UM-UC-9 engineered cells is more than 10000 nM.
On the same counts, the results for `COc1cc(-c2cc(C(=O)N3CCC(C(=O)NC4CN(C5CCOC5)C4)CC34CC4)n[nH]2)c(F)cn1` (mixture of isomers) [Example 433, (S)-4-(5-(5-fluoro-2-methoxypyridin-4-yl)-1H-pyrazole-3-carbonyl)-N-(1-((S)-tetrahydrofuran-3-yl)azetidin-3-yl)-4-azaspiro[2.5]octane-7-carboxamide and (S)-4-(5-(5-fluoro-2-methoxypyridin-4-yl)-1H-pyrazole-3-carbonyl)-N-(1-((R)-tetrahydrofuran-3-yl)azetidin-3-yl)-4-azaspiro[2.5]octane-7-carboxamide] are 89.6 nM and 695 nM.
On the same counts, the results for `COc1cc(-c2cc(C(=O)N3CCC(C(=O)Nc4cnn5ccc(C(C)O)nc45)CC34CC4)n[nH]2)c(F)cn1` (mixture of isomers) [Example 445, (S)-4-(5-(5-fluoro-2-methoxypyridin-4-yl)-1H-pyrazole-3-carbonyl)-N-(5-((R)-1-hydroxyethyl)pyrazolo[1,5-a]pyrimidin-3-yl)-4-azaspiro[2.5]octane-7-carboxamide and (S)-4-(5-(5-fluoro-2-methoxypyridin-4-yl)-1H-pyrazole-3-carbonyl)-N-(5-((S)-1-hydroxyethyl)pyrazolo[1,5-a]pyrimidin-3-yl)-4-azaspiro[2.5]octane-7-carboxamide] are 1.2 nM and 22.4 nM.
The like results for `COc1cc(-c2cc(C(=O)N3CCC(C(=O)NC4CCN(c5ccnc6[nH]ncc56)C4)CC34CC4)n[nH]2)c(F)cn1` (mixture of isomers) [Example 450, (S)—N—((S)-1-(1H-pyrazolo[3,4-b]pyridin-4-yl)pyrrolidin-3-yl)-4-(5-(5-fluoro-2-methoxypyridin-4-yl)-1H-pyrazole-3-carbonyl)-4-azaspiro[2.5]octane-7-carboxamide and (S)—N—((R)-1-(1H-pyrazolo[3,4-b]pyridin-4-yl)pyrrolidin-3-yl)-4-(5-(5-fluoro-2-methoxypyridin-4-yl)-1H-pyrazole-3-carbonyl)-4-azaspiro[2.5]octane-7-carboxamide] were, in that order, 1.5 nM and 114 nM.
For `COc1cc(-c2cc(C(=O)N3CCC(C(=O)NC4CCN(c5cnnc(C)c5)C4)CC34CC4)n[nH]2)c(F)cn1` (mixture of isomers) [Example 452, (S)-4-(5-(5-fluoro-2-methoxypyridin-4-yl)-1H-pyrazole-3-carbonyl)-N—((S)-1-(6-methylpyridazin-4-yl)pyrrolidin-3-yl)-4-azaspiro[2.5]octane-7-carboxamide and ('S)-4-(5-(5-fluoro-2-methoxypyridin-4-yl)-1H-pyrazole-3-carbonyl)-N—((R)-1-(6-methylpyridazin-4-yl)pyrrolidin-3-yl)-4-azaspiro[2.5]octane-7-carboxamide], on His6-TEV-PPARγ-(234-505), the AC50 turned out to be 33.4 nM. Besides, in the assay on UM-UC-9 engineered cells, the IC50 worked out at 2390 nM.
On the same counts, the results for `COc1cc(-c2cc(C(=O)N3CCC(C(=O)NC4CCN(c5cnc(C)nc5)C4)CC34CC4)n[nH]2)c(F)cn1` (mixture of isomers) [Example 453, (S)-4-(5-(5-fluoro-2-methoxypyridin-4-yl)-1H-pyrazole-3-carbonyl)-N—((S)-1-(2-methylpyrimidin-5-yl)pyrrolidin-3-yl)-4-azaspiro[2.5]octane-7-carboxamide and (S)-4-(5-(5-fluoro-2-methoxypyridin-4-yl)-1H-pyrazole-3-carbonyl)-N—((R)-1-(2-methylpyrimidin-5-yl)pyrrolidin-3-yl)-4-azaspiro[2.5]octane-7-carboxamide] are 25.6 nM and 44.2 nM.
The like results for `COc1cc(-c2cc(C(=O)N3CCC(C(=O)NC4CCN(CC5(O)COC5)C4)CC34CC4)n[nH]2)c(F)cn1` (mixture of isomers) [Example 454, (S)-4-(5-(5-fluoro-2-methoxypyridin-4-yl)-1H-pyrazole-3-carbonyl)-N—((R)-1-((3-hydroxyoxetan-3-yl)methyl)pyrrolidin-3-yl)-4-azaspiro[2.5]octane-7-carboxamide and (S)-4-(5-(5-fluoro-2-methoxypyridin-4-yl)-1H-pyrazole-3-carbonyl)-N—((S)-1-((3-hydroxyoxetan-3-yl)methyl)pyrrolidin-3-yl)-4-azaspiro[2.5]octane-7-carboxamide] were, in that order, 196 nM and 999 nM.
On the same counts, the results for `COc1cc(-c2cc(C(=O)N3CCC(C(=O)NC4CCN(CC(F)(F)CO)C4)CC34CC4)n[nH]2)c(F)cn1` (mixture of isomers) [Example 459, (S)—N—((S)-1-(2,2-difluoro-3-hydroxypropyl)pyrrolidin-3-yl)-4-(5-(5-fluoro-2-methoxypyridin-4-yl)-1H-pyrazole-3-carbonyl)-4-azaspiro[2.5]octane-7-carboxamide and (S)—N—((R)-1-(2,2-difluoro-3-hydroxypropyl)pyrrolidin-3-yl)-4-(5-(5-fluoro-2-methoxypyridin-4-yl)-1H-pyrazole-3-carbonyl)-4-azaspiro[2.5]octane-7-carboxamide] are 11.7 nM and 102 nM.
For the compound `COc1cc(-c2cc(C(=O)N3CCC(C(=O)NC4CCN(C5COC56CNC6)C4)CC34CC4)n[nH]2)c(F)cn1` (mixture of isomers) [Example 461], at His6-TEV-PPARγ-(234-505), the AC50 was determined as 440 nM. The IC50 with UM-UC-9 engineered cells is more than 10000 nM.
The like results for `COc1cc(-c2cc(C(=O)N3CCC(C(=O)NCc4ncc(N5CC6CC5CN6)cc4Cl)CC34CC4)n[nH]2)c(F)cn1` (mixture of isomers) [Example 462, (S)—N-((5-((1R,4R)-2,5-diazabicyclo[2.2.1]heptan-2-yl)-3-chloropyridin-2-yl)methyl)-4-(3-(5-fluoro-2-methoxypyridin-4-yl)-1H-pyrazole-5-carbonyl)-4-azaspiro[2.5]octane-7-carboxamide and (S)—N-((5-((1S,4S)-2,5-diazabicyclo[2.2.1]heptan-2-yl)-3-chloropyridin-2-yl)methyl)-4-(3-(5-fluoro-2-methoxypyridin-4-yl)-1H-pyrazole-5-carbonyl)-4-azaspiro[2.5]octane-7-carboxamide] were, in that order, 14.1 nM and 513 nM.
On the same counts, the results for `COc1cc(-c2cc(C(=O)N3CCC(C(=O)NC4CCN(C5COC56CCC6)C4)CC34CC4)n[nH]2)c(F)cn1` (mixture of isomers) [Example 464] are 9.3 nM and 36.4 nM.
With `COc1cc(-c2cc(C(=O)N3CCC(C(=O)Nc4cnn5ccc(C6CC6C#N)nc45)CC34CC4)n[nH]2)c(F)cn1` (mixture of isomers) [Example 466, (S)—N-(5-((1S,2S)-2-cyanocyclopropyl)pyrazolo[1,5-a]pyrimidin-3-yl)-4-(5-(5-fluoro-2-methoxypyridin-4-yl)-1H-pyrazole-3-carbonyl)-4-azaspiro[2.5]octane-7-carboxamide and (S)—N-(5-((1R,2R)-2-cyanocyclopropyl)pyrazolo[1,5-a]pyrimidin-3-yl)-4-(5-(5-fluoro-2-methoxypyridin-4-yl)-1H-pyrazole-3-carbonyl)-4-azaspiro[2.5]octane-7-carboxamide], the AC50 on His6-TEV-PPARγ-(234-505) worked out at 5.1 nM. In the assay on UM-UC-9 engineered cells, the IC50 came to 51.2 nM.
`COc1cc(-c2cc(C(=O)N3CC[C@H](C(=O)NCc4ncc(N5C[C@H]6C[C@@H]5CN6)cn4)CC34CC4)[nH]n2)c(F)cn1` (mixture of isomers) [Example 467, (S)—N-((5-((1R,4R)-2,5-diazabicyclo[2.2.1]heptan-2-yl)pyrimidin-2-yl)methyl)-4-(3-(5-fluoro-2-methoxypyridin-4-yl)-1H-pyrazole-5-carbonyl)-4-azaspiro[2.5]octane-7-carboxamide and (S)—N-((5-((1S,4S)-2,5-diazabicyclo[2.2.1]heptan-2-yl)pyrimidin-2-yl)methyl)-4-(3-(5-fluoro-2-methoxypyridin-4-yl)-1H-pyrazole-5-carbonyl)-4-azaspiro[2.5]octane-7-carboxamide]: the AC50 on His6-TEV-PPARγ-(234-505) came to 951 nM. In addition, the IC50 with UM-UC-9 engineered cells (Homo sapiens, UM-UC-9, 144 h) was more than 10000 nM.
